Values after ≈ are worked out from the molar mass of the structure shown.
Key:
human GPR40 receptor = human GPR40 receptor (Homo sapiens, UniProt O14842); assay: IP1 accumulation measurements using the IPOne assay system; assay type: cell-based; details: 1321N1 cells stably expressing human GPR40; 1 h stimulation at 37° C.
Procedure: IP1 accumulation measurements using the IPOne assay system—1321N1 cells stably expressing human GPR40 receptor (Euroscreen, Belgium) are seeded 24 h before the assay in white 384-well plates in culture medium containing 10% FCS, 1% Na-Pyruvate and 400 μg/mL G418. IP1 is assayed according to the manufacturer's description (Cisbio Bioassays, France). In brief, the assay is started by substitution of the culture medium by stimulation buffer (Hepes 10 mM, CaCl2 1 mM, MgCl2 0.5 mM, KCl 4.2 mM, NaCl 146 mM, glucose 5.5 mM and LiCl 50 mM, pH 7.4). Cells are stimulated for 1 h at 37° C., 5% CO2 by addition of the compounds that are diluted in stimulation buffer containing LiCl. Assays are stopped by adding HTRF-conjugates (IP1-d2 and Anti-IP1 cryptate Tb) and lysis buffer, provided by the manufacturer. After an incubation time of 1 h at room temperature plates are measured using an EnVision™, Perkin Elmer. The obtained fluorescence ratios at 665/615 […] are then used to calculate the pEC50 values using Assay Explorer 3.3 Software (Accelrys, Inc.) by interpolation using an IP1 reference curve and subsequent sigmoidal curve fitting allowing for a variable hill slope.

[1] = Aqueous solubility from DMSO stock, LC-UV; assay type: physicochemical; details: aqueous buffer, kinetic from dmso stock; buffer pH 2.2, 24 h shaking, 2.5% DMSO
Procedure: The aqueous solubility of the compounds of the invention is determined by comparing the amount dissolved in buffer to the amount in an acetonitrile/water (1/1) solution. Starting from a 10 mM DMSO stock solution aliquots are diluted with acetonitrile/water (1/1) or buffer, respectively. After 24 h of shaking, the solutions are filtrated and analyzed by LC-UV. The amount dissolved in buffer is compared to the amount in the acetonitrile solution. Solubility is usually being measured from 0.001 to 0.125 mg/mL at a DMSO concentration of 2.5%. If more than 90% of the compound is dissolved in buffer, the value is marked with “>”.

[2] = molecular target: T1, cytochrome P450 2C8-isoenzyme (Homo sapiens, UniProt P10632); assay: Inhibition of CYP-2C8 (amodiaquine deethylation, human liver microsomes); assay type: in vitro ADME; details: human liver microsomes 0.05 mg/mL, amodiaquine 1 μM, 37° C.
T1 construct: is assayed at 37° C. with human liver microsomes; from tissue; host or cells: human liver microsomes
T1 sequence (P10632 1-490): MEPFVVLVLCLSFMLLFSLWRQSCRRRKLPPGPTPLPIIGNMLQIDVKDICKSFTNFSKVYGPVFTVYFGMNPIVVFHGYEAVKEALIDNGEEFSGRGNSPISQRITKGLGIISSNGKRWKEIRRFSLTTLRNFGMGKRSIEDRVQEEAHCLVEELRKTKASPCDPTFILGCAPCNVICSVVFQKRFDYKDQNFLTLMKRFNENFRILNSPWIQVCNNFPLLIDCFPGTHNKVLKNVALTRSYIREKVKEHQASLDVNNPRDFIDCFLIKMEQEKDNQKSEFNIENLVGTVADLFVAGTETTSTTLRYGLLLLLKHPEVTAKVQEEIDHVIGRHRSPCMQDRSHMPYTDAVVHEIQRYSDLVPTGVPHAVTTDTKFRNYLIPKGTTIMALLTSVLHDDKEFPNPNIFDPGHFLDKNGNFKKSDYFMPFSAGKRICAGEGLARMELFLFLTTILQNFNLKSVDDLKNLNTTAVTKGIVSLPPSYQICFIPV
Procedure: All assays are carried out on a robotic system in 96 well plates. The final incubation volume contains TRIS buffer (0.1 M), MgCl2 (5 mM), human liver microsomes (0.05 mg/mL), amodiaquine (1 μM) and the test compound at five different concentrations or no compound (high control) in duplicate (e.g. highest concentration 10-50 μM with subsequent serial 1:4 dilutions). Following a short preincubation period, reactions are started with the cofactor (NADPH, 1 mM) and stopped by cooling the incubation down to 8° C. and subsequently by addition of one volume of acetonitrile. An internal standard solution—the stable isotope d5-desethylamodiaquine—is added after quenching of incubations. Peak area analyte (=metabolite formed) and internal standard is determined by LC-MS/MS. The resulting peak area ratio analyte to internal standard in these incubations is compared to a control activity containing no test compound. Within each of the assay runs, the IC50 of a positive control inhibitor (Montelukast) is determined. Experimental IC50 values are calculated by least square regression according to the following equation: % control activity=(100% control activity/(1+(I/IC50)S))−B with I=inhibitor concentration; S=slope factor; B=background activity (lower plateau of the inhibition curve) If the inhibition of the reaction is already >50% at the lowest concentration of the test compound, the IC50 is assigned “<lowest concentration tested” (usually <0.4 μM). If the inhibition of the reaction is still <50% at the highest concentration of the test compound, the IC50 is assigned “>highest concentration tested” (usually >50 μM).

[3] = molecular target: T2, cytochrome P450 2C9-isoenzyme (Homo sapiens, UniProt P11712); assay: Inhibition of CYP-2C9 (diclofenac hydroxylation, human liver microsomes); assay type: in vitro ADME; details: human liver microsomes 0.1 mg/mL, diclofenac 10 μM, 37° C.
T2 construct: is assayed at 37° C. with human liver microsomes; from tissue; host or cells: human liver microsomes
Procedure: All assays are carried out on a robotic system in 96 well plates. The final incubation volume contains TRIS buffer (0.1 M), MgCl2 (5 mM), human liver microsomes (0.1 mg/mL), diclofenac (10 μM) and the test compound at five different concentrations or no compound (high control) in duplicate (e.g. highest concentration 10-50 μM with subsequent serial 1:4 dilutions). Following a short preincubation period, reactions are started with the cofactor (NADPH, 1 mM) and stopped by cooling the incubation down to 8° C. and subsequently by addition of one volume of acetonitrile. An internal standard solution—the stable isotope 13C6-hydroxydiclofenac—is added after quenching of incubations. Peak area analyte (=metabolite formed) and internal standard is determined by LC-MS/MS. The resulting peak area ratio analyte to internal standard in these incubations is compared to a control activity containing no test compound. Within each of the assay runs, the IC50 of a positive control inhibitor (sulfaphenazole) is determined. Experimental IC50 values are calculated by least square regression according to the following equation: % control activity=(100% control activity/(1+(I/IC50)S)))−B with I=inhibitor concentration S=slope factor B=background activity (lower plateau of the inhibition curve) If the inhibition of the reaction is already >50% at the lowest concentration of the test compound, the IC50 is assigned “<lowest concentration tested” (usually <0.4 μM). If the inhibition of the reaction is still <50% at the highest concentration of the test compound, the IC50 is assigned “>highest concentration tested” (usually >50 μM).

Sequence of human GPR40 receptor (O14842 whole entry): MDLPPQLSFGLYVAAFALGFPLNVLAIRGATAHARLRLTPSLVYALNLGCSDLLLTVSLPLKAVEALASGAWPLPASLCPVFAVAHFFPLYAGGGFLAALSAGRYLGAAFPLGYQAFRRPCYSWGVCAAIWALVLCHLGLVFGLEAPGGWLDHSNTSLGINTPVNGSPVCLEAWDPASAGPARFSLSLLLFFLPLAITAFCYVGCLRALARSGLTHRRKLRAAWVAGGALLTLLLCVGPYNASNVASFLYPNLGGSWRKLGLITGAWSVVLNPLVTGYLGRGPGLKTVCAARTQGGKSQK
T2 sequence (P11712 whole entry): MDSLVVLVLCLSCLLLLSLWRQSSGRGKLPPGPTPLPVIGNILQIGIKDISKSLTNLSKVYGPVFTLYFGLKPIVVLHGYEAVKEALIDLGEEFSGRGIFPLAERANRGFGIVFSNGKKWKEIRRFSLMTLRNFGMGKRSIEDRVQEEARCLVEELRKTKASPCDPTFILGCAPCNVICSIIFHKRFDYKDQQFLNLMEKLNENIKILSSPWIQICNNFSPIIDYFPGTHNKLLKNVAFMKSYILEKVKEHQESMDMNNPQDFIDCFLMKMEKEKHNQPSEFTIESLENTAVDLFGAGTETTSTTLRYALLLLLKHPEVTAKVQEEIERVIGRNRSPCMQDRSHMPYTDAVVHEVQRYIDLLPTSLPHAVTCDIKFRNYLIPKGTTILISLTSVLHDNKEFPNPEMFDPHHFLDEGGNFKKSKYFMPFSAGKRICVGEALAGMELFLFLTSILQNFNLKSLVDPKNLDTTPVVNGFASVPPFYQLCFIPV

Structure (SMILES) | EC50 (human GPR40 receptor) [µM] | solubility at 24 h [1] [µg/mL] | IC50 [2] [µM] | IC50 [3] [µM]
Cc1cc(OCC(C)(C)O)cc(C)c1-c1cccc2c1CC[C@H]2Nc1cnc2c(c1)OCC2CC(=O)O (stereo partly drawn) [Example 118, 2-(6-{[(1R)-4-[4-(2-Hydroxy-2-methylpropoxy)-2,6-dimethylphenyl]-2,3-dihydro-1H-inden-1-yl]amino}-2H,3H-furo[3,2-b]pyridin-3-yl)acetic acid] | 0.158 | 66 (≈ 131 µM) | > 50 | > 50
Cc1cc(OCCC(C)(C)O)cc(C)c1-c1ccc(F)c2c1CC[C@H]2Nc1cnc2c(c1)OCC2CC(=O)O (stereo partly drawn) [Example 1, 2-(6-{[(1R)-7-Fluoro-4-[4-(3-hydroxy-3-methylbutoxy)-2,6-dimethylphenyl]-2,3-dihydro-1H-inden-1-yl]amino}-2H,3H-furo[3,2-b]pyridin-3-yl)acetic acid] | 0.057 |  | 17 | > 50
Cc1cc(-c2nnn(CC(C)(C)O)n2)cc(C)c1-c1cccc2c1CC[C@H]2Nc1cnc2c(c1)OCC2CC(=O)O (stereo partly drawn) [Example 122, 2-(6-{[(1R)-4-{4-[2-(2-Hydroxy-2-methylpropyl)-2H-1,2,3,4-tetrazol-5-yl]-2,6-dimethylphenyl}-2,3-dihydro-1H-inden-1-yl]amino}-2H,3H-furo[3,2-b]pyridin-3-yl)acetic acid] | 0.024 | 45 (≈ 81.1 µM) | 32 | > 50
Cc1cc(OC2CCOCC2)cc(C)c1-c1cccc2c1CC[C@H]2Nc1cnc2c(c1)OCC2CC(=O)O (stereo partly drawn) [Example 119, 2-(6-{[(1R)-4-[2,6-Dimethyl-4-(oxan-4-yloxy)phenyl]-2,3-dihydro-1H-inden-1-yl]amino}-2H,3H-furo[3,2-b]pyridin-3-yl)acetic acid] | 0.09 | 16 (≈ 31.1 µM) | 41 | > 50
Cc1cc(-c2ccn(C)c(=O)c2)cc(C)c1-c1cccc2c1CC[C@H]2Nc1cnc2c(c1)OCC2CC(=O)O (stereo partly drawn) [Example 120, 2-(6-{[(1R)-4-[2,6-Dimethyl-4-(1-methyl-2-oxo-1,2-dihydropyridin-4-yl)phenyl]-2,3-dihydro-1H-inden-1-yl]amino}-2H,3H-furo[3,2-b]pyridin-3-yl)acetic acid] | 0.052 | 29 (≈ 55.6 µM) | 12 | > 50
Cc1cc(-c2ccc(=O)n(C)c2)cc(C)c1-c1cccc2c1CC[C@H]2Nc1cnc2c(c1)OCC2CC(=O)O (stereo partly drawn) [Example 121, 2-(6-{[(1R)-4-[2,6-Dimethyl-4-(1-methyl-6-oxo-1,6-dihydropyridin-3-yl)phenyl]-2,3-dihydro-1H-inden-1-yl]amino}-2H,3H-furo[3,2-b]pyridin-3-yl)acetic acid] | 0.061 | 51 (≈ 97.8 µM) | 29 | > 50
O=C(O)CC1COc2cc(N[C@@H]3CCc4c(-c5ccccc5C(F)(F)F)cccc43)cnc21 (stereo partly drawn) [Example 125, 2-(6-{[(1R)-4-[2-(Trifluoromethyl)phenyl]-2,3-dihydro-1H-inden-1-yl]amino}-2H,3H-furo[3,2-b]pyridin-3-yl)acetic acid] | 0.693 | 22 (≈ 48.4 µM) | 21 | 47
N#CC1(c2ccccc2-c2cccc3c2CC[C@H]3Nc2cnc3c(c2)OCC3CC(=O)O)CC1 (stereo partly drawn) [Example 131, 2-(6-{[(1R)-4-[2-(1-Cyanocyclopropyl)phenyl]-2,3-dihydro-1H-inden-1-yl]amino}-2H,3H-furo[3,2-b]pyridin-3-yl)acetic acid] | 6.39 | 67 (≈ 148 µM) | 37 | > 50
Cc1cc(C(=O)N(C)C)cc(C)c1-c1cccc2c1CC[C@H]2Nc1cnc2c(c1)OCC2CC(=O)O (stereo partly drawn) [Example 126, 2-(6-{[(1R)-4-[4-(Dimethylcarbamoyl)-2,6-dimethylphenyl]-2,3-dihydro-1H-inden-1-yl]amino}-2H,3H-furo[3,2-b]pyridin-3-yl)acetic acid] | 1.87 | 79 (≈ 163 µM) | 37 | > 50
N#Cc1cccc(C#N)c1-c1cccc2c1CC[C@H]2Nc1cnc2c(c1)OCC2CC(=O)O (stereo partly drawn) [Example 130, 2-(6-{[(1R)-4-(2,6-Dicyanophenyl)-2,3-dihydro-1H-inden-1-yl]amino}-2H,3H-furo[3,2-b]pyridin-3-yl)acetic acid] | > 10 | 84 (≈ 192 µM) | > 50 | > 50
Cc1ccc(Cl)c(-c2cccc3c2CC[C@H]3Nc2cnc3c(c2)OCC3CC(=O)O)c1Cl (stereo partly drawn) [Example 128, 2-(6-{[(1R)-4-(2,6-dichloro-3-methylphenyl)-2,3-dihydro-1H-inden-1-yl]amino}-2H,3H-furo[3,2-b]pyridin-3-yl)acetic acid] | 0.126 | 1 (≈ 2.13 µM) | 14 | > 50
Cc1cc(-c2cc(=O)n(C)cn2)cc(C)c1-c1cccc2c1CC[C@H]2Nc1cnc2c(c1)OCC2CC(=O)O (stereo partly drawn) [Example 133, 2-(6-{[(1R)-4-[2,6-Dimethyl-4-(1-methyl-6-oxo-1,6-dihydropyrimidin-4-yl)phenyl]-2,3-dihydro-1H-inden-1-yl]amino}-2H,3H-furo[3,2-b]pyridin-3-yl)acetic acid] | 0.033 | 78 (≈ 149 µM) | 21 | > 50
Cc1cc(OCCC(C)(C)O)cc(C)c1-c1cccc2c1CC[C@H]2Oc1ccc2c(c1)OC[C@H]2CC(=O)O [7 (WO 2013/144098), reference compound] |  |  | 5 | > 10

Source: patent US20180354962A1, “[{[2,3-Dihydro-1H-inden-1-yl]amino}-2H,3H-furo[3,2-b]pyridin-3-yl]acetic acids, pharmaceutical compositions and uses thereof” (Boehringer Ingelheim International GmbH, priority 2015, published 2018)
